Laboratory results from patent US20140329679A1, “HERBICIDAL COMPOSITIONS COMPRISING TRIFLUOROME THANESULFONANILIDES AND SAFENERS” (priority 2011, published 2014).

Key:
Type in all cases: in vivo
[1] = tested on: wheat (variety Hereward); assay: Pre-emergence safening on wheat, seed treated with safener, general crop injury; details: 250 g/ha compound of formula (I) sprayed the day after planting, evaluated after 21 days; for Percentage damage, wheat treated with cloquintocet-mexyl: seed treated with cloquintocet-mexyl at 0.25 g per kg seed, mean of two replicates; for Percentage damage, untreated wheat: seed without safener, mean % visual phytotoxicity of two replicates
Method: (§1) Maize (variety Claxxon) and wheat (variety Hereward) seeds were treated with a herbicide safener at a rate of 0.2 g safener per kg seed (maize) and 0.25 g safener per kg seed (wheat) prior to sowing. Treated and untreated seeds were sown into standard soil in troughs. The safeners used were N-(2-methoxybenzoyl)-4-Rmethylaminocarbonyl)aminoThenzenesulfonamide (safener A in Table 2) and cloquintocet-mexyl.
(§2) The day after planting the troughs were sprayed with an aqueous spray solution prepared by dissolving the technical active ingredient in an organic solvent and diluting with deionised water to give a final dose of 250 g/ha of a compound of formula (I).
(§3) The spray solution was applied with a cabinet tracksprayer with a flat fan nozzle (Teejet 11002VS) and an application volume of 200 L/ha (at 2 bar).
(§4) The test plants were then grown on in a glasshouse under controlled conditions (at 24/18° C. day/night; 16 hours light; 65% humidity) and watered twice a day. After 21 days the test was evaluated for general crop injury (100% equals total damage to plant; 0% equals no damage to plant).
(§5) Results are shown below in Table 2 as the mean % visual phytotoxicity of two replicates.

[2] = tested on: Maize (variety Claxxon); assay: Pre-emergence safening on corn, seed treated with safener, general crop injury; details: 250 g/ha compound of formula (I) sprayed the day after planting, evaluated after 21 days; for Percentage damage, corn treated with safener A: seed treated with safener A at 0.2 g per kg seed, mean of two replicates; for Percentage damage, untreated corn: seed without safener, mean % visual phytotoxicity of two replicates
Method: as §1, §2, §3, §4, §5

[3] = tested on: soya (variety Nikko); assay: Post-emergence crop safening on soya, general crop injury; details: compound of formula (I) alone at 200 g/ha, post-emergence spray at 2-3 leaf stage, evaluated after 21 days; 100% = total damage, 0% = no damage; single replicate
Method: Maize (variety Garland) and soya (variety Nikko) seeds were sown into standard soil in pots and cultivated under controlled conditions in a glasshouse (at 24/18° C. day/night; 16 hours light; 65% humidity). […] All the compounds used for the spray solution were present as technical material and the safeners were either an EC, SC or WP formulation respectively or technical material. In addition a non-ionic surfactant (Tween 20) was added to form a 0.25% v/v solution. The spray solution was applied with a cabinet tracksprayer with a flat fan nozzle (Teejet 11002VS) and an application volume of 200 L/ha (at 2 bar). The test plants were then grown on in a glasshouse under controlled conditions (at 24/18° C. day/night; 16 hours light; 65% humidity) and watered twice a day. […] Results are shown below in Table 3 as the mean % visual phytotoxicity of two replicates and in Table 4 as the mean % visual phytotoxicity of a single replicate.

[4] = tested on: Maize (variety Garland); assay: Post-emergence crop safening on maize, general crop injury; details: post-emergence spray at 2-3 leaves; 500 g/ha Compound 41 alone or with 100 g/ha safener; 0.25% v/v Tween 20; evaluated after 21 days; mean of two replicates
Method: Maize (variety Garland) and soya (variety Nikko) seeds were sown into standard soil in pots and cultivated under controlled conditions in a glasshouse (at 24/18° C. day/night; 16 hours light; 65% humidity).
When the plants were at the vegetative stage of 2-3 leaves they were sprayed with an aqueous spray solution containing a compound of formula (I) alone and in combination with a number of different herbicide safeners. All the compounds used for the spray solution were present as technical material and the safeners were either an EC, SC or WP formulation respectively or technical material. In addition a non-ionic surfactant (Tween 20) was added to form a 0.25% v/v solution.
as §3, §4
Results are shown below in Table 3 as the mean % visual phytotoxicity of two replicates and in Table 4 as the mean % visual phytotoxicity of a single replicate.

| SMILES | Percentage damage, wheat treated with cloquintocet-mexyl [1] [%] | Percentage damage, untreated wheat [1] [%] | Percentage damage, corn treated with safener A [2] [%] | Percentage damage, untreated corn [2] [%] | Percentage damage caused to soya (mean % visual phytotoxicity, general crop injury) [3] [%] | Percentage damage caused to maize [4] [%] |
| --- | --- | --- | --- | --- | --- | --- |
| O=C1CCCN1Cc1ccccc1NS(=O)(=O)C(F)(F)F [Compound 1] | 5 | 35 | 5 | 30 | – | – |
| O=C1CCCCN1Cc1ccccc1NS(=O)(=O)C(F)(F)F [Compound 5] | 20 | 45 | 25 | 55 | – | – |
| CCCC(=O)N(c1ccccc1CN1CCCCC1=O)S(=O)(=O)C(F)(F)F [Compound 6] | 10 | 30 | 5 | 80 | – | – |
| CCOC(=O)N(c1ccccc1CN1CCCCC1=O)S(=O)(=O)C(F)(F)F [Compound 7] | 30 | 50 | 10 | 98 | – | – |
| CCC(=O)N(c1ccccc1CN1CCCC(SC)C1=O)S(=O)(=O)C(F)(F)F (stereo not shown) [Compound 16] | 15 | 40 | 2.5 | 86 | – | – |
| CC1(C)CC(=O)N(Cc2ccccc2NS(=O)(=O)C(F)(F)F)O1 [Compound 20] | 15 | 25 | 0 | 40 | – | – |
| CC1(C)CC(=O)N(Cc2ccccc2N(C(=O)OCCl)S(=O)(=O)C(F)(F)F)O1 [Compound 21] | 5 | 20 | 20 | 30 | – | – |
| O=C1COCCN1Cc1ccccc1NS(=O)(=O)C(F)(F)F [Compound 41] | 10 | 35 | 5 | 80 | 30 | 25 |
| O=C1NCCCN1Cc1ccccc1NS(=O)(=O)C(F)(F)F [Compound 53] | 10 | 40 | 5 | 40 | – | – |
| CC1(C)CN(Cc2ccccc2NS(=O)(=O)C(F)(F)F)C(=O)O1 [Compound 85] | 15 | 40 | 15 | 65 | – | – |
| CC1(C(F)(F)F)CCN(Cc2ccccc2N(C(=O)OCCl)S(=O)(=O)C(F)(F)F)C(=O)O1 (stereo not shown) [Compound 102] | 0 | 10 | 0 | 5 | – | – |
| CCOC(=O)N(c1ccccc1CN1CCC(C)(C(F)(F)F)OC1=O)S(=O)(=O)C(F)(F)F (stereo not shown) [Compound 103] | 0 | 15 | 0 | 10 | – | – |
| CCC1(C(F)(F)F)CCN(Cc2ccccc2NS(=O)(=O)C(F)(F)F)C(=O)O1 (stereo not shown) [Compound 106] | – | – | – | – | 15 | – |
| CCOC(=O)N(c1ccccc1CN1CCCCS1(=O)=O)S(=O)(=O)C(F)(F)F [Compound 133] | 5 | 25 | 10 | 20 | – | – |
| CN1CCCN(Cc2ccccc2N(C(=O)OCCl)S(=O)(=O)C(F)(F)F)S1(=O)=O [Compound 145] | 5 | 10 | 0 | 20 | – | – |
| CCOC(=O)N(c1ccccc1CN1CCCN(C)S1(=O)=O)S(=O)(=O)C(F)(F)F [Compound 146] | 17.5 | 40 | 0 | 22.5 | – | – |
| CC(C)COC(=O)N(c1ccccc1CN1CCCN(C)S1(=O)=O)S(=O)(=O)C(F)(F)F [Compound 147] | 5 | 25 | 2.5 | 15 | – | – |
